Results reported in EPA's aquatic toxicity sets.

Tested on: Tetrahymena pyriformis
Experiment: 48 h IGC50 (-log10 mol/L); higher = more toxic

| SMILES | 48 h IGC50 (-log10 mol/L) |
| --- | --- |
| CC(=O)C(C)Cl (stereo not drawn) | 3.27 |
| CCCC/C=C/C=O | 4.05 |
| CCOC(=O)C(C)Br (stereo not drawn) | 4.06 |
| CC(C)C(=O)O | 2.67 |
| C=CCSc1ccccc1 | 3.69 |
| Cc1ccc(N)c(Cl)c1 | 3.18 |
| O=[N+]([O-])c1ccccc1CO | 2.85 |
| O=[N+]([O-])c1cc(C(F)(F)F)ccc1Cl | 3.85 |
| O=[N+]([O-])c1ccccc1Br | 3.75 |
| OC12CC3CC(CC(C3)C1)C2 | 2.92 |
| C=C(C)CCC(C)=O | 2.12 |
| CC(C)c1cccc(O)c1 | 3.61 |
| COc1ccccc1C=O | 3.15 |
| CCC(=O)OCC(C)C | 2.31 |
| CC(Br)C#N (stereo not drawn) | 3.63 |
| O=C(O)c1c(Cl)cccc1Cl | 2.33 |
| CCCOC(=O)/C=C/c1ccccc1 | 4.23 |
| O=C1C=CC(=O)c2ccccc21 | 5 |
| COC(=O)CCBr | 4.03 |
| C=COC(=O)C(=C)C | 2.38 |
| CCCCCCC=CCO | 3.77 |
| CCOS(=O)(=O)OCC | 2.3 |
| CCC(Cl)C(=O)O (stereo not drawn) | 2.65 |
| Cc1cnc2ccccc2n1 | 3.02 |

| SMILES | 48 h IGC50 (-log10 mol/L) |
| --- | --- |
| CCOc1cccc(C=O)c1O | 3.85 |
| COC(=O)c1ccc(C=O)cc1 | 3.3 |
| CC/C=C\CCO | 2.19 |
| Oc1ccc(N=Nc2ccccc2)cc1 | 4.66 |
| CCOC(=O)C[C@H](O)CC#N | 1.36 |
| COC(=O)c1ccc(C(=O)OC)c([N+](=O)[O-])c1 | 3.43 |
| Cc1ccc([N+](=O)[O-])cc1F | 3.33 |
| O=C(c1ccccc1)c1ccc(O)cc1O | 4.37 |
| Oc1cccc(O)c1O | 3.85 |
| C=CCC(=O)O | 2.36 |
| OCc1cc(Br)ccc1O | 3.34 |
| COc1ccc(CO)cc1O | 2.01 |
| CC(C)=CCO | 1.76 |
| N#CCC(=O)OC1CCCCC1 | 2.91 |
| CCCCCCCCCC(=O)O | 3.51 |
| COC(=O)CCCBr | 3.07 |
| Cc1cc(C)c(O)c(C(C)(C)C)c1 | 4.16 |
| CCOC(=O)CCCBr | 2.97 |
| CCC(=O)C(=O)CC | 2.99 |
| C#CC(O)CC (stereo not drawn) | 1.82 |
| COc1ccc(C=O)cc1 | 2.95 |
| CCNc1ccccc1 | 3.07 |
| CCCOC(=O)CCC | 2.59 |
| Oc1cc(Cl)ccc1Cl | 4.13 |

| SMILES | 48 h IGC50 (-log10 mol/L) |
| --- | --- |
| O=[N+]([O-])c1cc(Cl)ccc1O | 5.12 |
| C#CCCCO | 1.58 |
| C/C(=N\O)C(=O)c1ccccc1 | 2.96 |
| CCN=C=S | 4.63 |
| O=C(c1ccccc1)C(F)(F)F | 2.99 |
| Cc1ccc(N)cc1Cl | 3.39 |
| CCC(O)c1ccccc1 (stereo not drawn) | 2.57 |
| CC(C)(C)c1cc(N)cc(C(C)(C)C)c1 | 4.44 |
| CCCCCC/C=C/C=O | 4.6 |
| O=Cc1ccccc1F | 3.08 |
| Nc1c(Cl)c(Cl)cc(Cl)c1Cl | 4.76 |
| COc1cc(C=O)ccc1O | 2.97 |
| C=C(C)C(=O)OCC | 2.07 |
| Cc1ccc2nc(C)ccc2c1 | 3.68 |
| CC(=O)c1ccc(O)cc1O | 3.25 |
| O=[N+]([O-])c1c(F)c(F)c(F)c(F)c1F | 5.43 |
| CCOC(=O)c1ccc(C(C)(C)C)cc1 | 4.42 |
| O=[N+]([O-])CBr | 4.64 |
| CC1CCC(=O)O1 (stereo not drawn) | 1.43 |
| CCc1ccccc1O | 3.16 |
| CCC(=O)OC(C)(C)C | 2.59 |
| CC(=O)c1ccco1 | 1.96 |
| NNC=O | 2.13 |
| Cc1cc(C)c(C)c(O)c1 | 3.36 |

| SMILES | 48 h IGC50 (-log10 mol/L) |
| --- | --- |
| C=CCOC(=O)CC#N | 2.21 |
| CC(C)(C)c1cc(O)cc(C(C)(C)C)c1 | 4.64 |
| COC(=O)CCCCCCCCC(=O)OC | 4.01 |
| COc1cccc(Cl)c1 | 3.29 |
| CCOc1ccc(C(=O)OC)cc1 | 3.58 |
| N#Cc1ccccc1Cl | 3.28 |
| CCC(C)CC(=O)O (stereo not drawn) | 2.77 |
| N#CC(Cl)(Cl)Cl | 4.88 |
| CN(C)Cc1cc(CN(C)C)c(O)c(CN(C)C)c1 | 2.48 |
| Cc1cccc(C)c1[N+](=O)[O-] | 3.3 |
| N#Cc1ccc(Cl)s1 | 2.92 |
| O=C(O)c1cc(Br)cc(Br)c1 | 3.46 |
| CCC(C)CN (stereo not drawn) | 2.52 |
| CCCCC/C=C/CO | 3.37 |
| O=C(c1ccccc1)c1ccc(O)c(O)c1O | 3.88 |
| CC(CN)c1ccccc1 (stereo not drawn) | 2.72 |
| C#CCC(O)CC (stereo not drawn) | 1.6 |
| N#Cc1cccs1 | 2.24 |
| Oc1ccccc1Cc1ccccc1 | 4.31 |
| CCOc1ccc(O)cc1 | 3.01 |
| C=CCC(C)O (stereo not drawn) | 1.48 |
| Brc1ccccn1 | 2.46 |
| O=C(CBr)Nc1cc([N+](=O)[O-])ccc1O | 3.87 |
| CCOC(=O)c1ccc([N+](=O)[O-])cc1 | 3.71 |

| SMILES | 48 h IGC50 (-log10 mol/L) |
| --- | --- |
| CC#CCO | 2.13 |
| O=[N+]([O-])c1cc(F)ccc1F | 3.33 |
| CC(C)(CO)CCl | 2.22 |
| N#Cc1cc(Br)c(O)c(Br)c1 | 4.16 |
| CCC(=O)Cc1ccccc1 | 2.79 |
| Cc1ccc(CN)cc1 | 2.99 |
| CCc1cccc(N)c1 | 2.97 |
| Oc1cc(O)cc(O)c1 | 1.74 |
| CCCc1ccccc1N | 3.08 |
| O=Cc1ccc([N+](=O)[O-])c(O)c1 | 3.27 |
| O=[N+]([O-])c1cc(Br)ccc1O | 4.87 |
| CCOC(=O)C(Br)CC (stereo not drawn) | 3.76 |
| CCCCCCCCCOC(=O)c1ccc(O)cc1 | 5.63 |
| COc1cc(C(C)=O)ccc1O | 2.88 |
| c1cnc2ccc3ncccc3c2c1 | 4.14 |
| Cc1c(O)ccc(O)c1C | 4.41 |
| CC(C)(C)CC=O | 2.63 |
| CC(C)C(Br)C(=O)O (stereo not drawn) | 2.45 |
| OCc1ccccc1Br | 3.1 |
| Cc1cc(N)c([N+](=O)[O-])cc1C | 3.45 |
| C=CC(=O)OCCC | 3.53 |
| CCOC(=O)CCCl | 2.5 |
